Data taken from patent US20090088482A1, “Compositions and Methods For Treating Heart Failure” (The Trustees Of Columbia University In The City New York, priority 2003, published 2009).

Assays:
[1] = system: rats with HF induced by LAD ligation; experiment: Hemodynamic measurements (Millar catheter) in LAD ligation ischemic HF rats (Example 5); assay type: in vivo, Sprague-Dawley rats; details: mean ± SD, after 9 weeks oral therapy; for MAP: HF 47.2 ± 8.85, Sham 39.8 ± 5.56; for LVSP: HF 113 ± 10.3, Sham 116 ± 17.3; for HR: HF 302 ± 19.1, Sham 291 ± 52.2; for Maximum dP/dt: HF 4609 ± 583, Sham 6700 ± 1706; for Minimum dP/dt: HF −3854 ± 563, Sham −6458 ± 1799
Method: After the induction of general anesthesia with the use of intraperitoneal ketamine (75 mg/kg; Fort Dodge Animal Health, Fort Dodge, Iowa) and xylazine (5 mg/kg; Lloyd Laboratories, Shenandoah, Iowa), endotracheal intubation with a 16-guage angiocathether was performed. Rats were supported by a small animal ventilator (Harvard Apparatus, Holliston, Mass.). After performing a left thoracotomy, a sham operation (pericardiectomy only) or left anterior descending artery (LAD) ligation with a 7-0 polypropylene suture was performed. Subsequently, a chest tube (16-guage angiocathether) was placed in the left pleural space prior to closing the incision in three layers. Finally, the chest tube was used to aspirate the pleural cavity and removed after extubation.
A total of 69 rats were used in this study. […] Three weeks post-operatively, echocardiography was performed to establish the baseline level of HF (as measured by fractional shortening). The LAD ligation rats were divided into 4 treatment groups matched for the degree of HF and were randomly assigned to one of the following therapies for 9 additional weeks: (1) rats receiving no therapy (group HF, n=9); (2) rats receiving high-dose clenbuterol at 1 mg/kg/day (group Clen, n=9); (3) rats receiving high-dose metoprolol at 200 mg/kg/day (group Meto, n=9); or (4) rats receiving concurrent high-dose clenbuterol at 1 mg/kg/day and high-dose metoprolol therapy at 200 mg/kg/day (group Clen+Meto, n=10).
Clenbuterol (ICN Biomedicals, Aurora, Ohio) was sonicated and subsequently dissolved in the drinking water. Metoprolol (Sigma-Aldrich, St. Louis, Mo.) was dissolved in the drinking water either alone or in combination with clenbuterol for the Clen+Meto group. The concentrations of clenbuterol and metoprolol were varied to keep the study drug dose delivered within a narrow therapeutic window based on daily water consumption. […] The treated drinking water was made fresh every 48-72 hours. Oral pharmacotherapy was continued for a total of 9 weeks.
In the terminal experiments 12 weeks post-surgery, the rats were anesthetized with inhaled isoflurane mixed with oxygen. A 2-French Millar catheter (Millar Instruments, Houston, Tex.) was inserted into the right carotid artery and pressure measurements collected and saved as the catheter was advanced into the left ventricle. The heart was quickly arrested in diastole and excised. Hearts were subsequently weighed and used for the ex vivo determination of LV end-diastolic pressure-volume relationships (EDPVR). Using Chart 4 (version 4.2.4, ADInstruments, Colorado Springs, Colo.), left ventricular end-diastolic pressure (LVEDP), left ventricular systolic pressure (LVSP), mean aortic pressure (MAoP), heart rate, and maximum and minimum LV dP/dt (dP/dtmax and dP/dtmin) were later obtained from stored hemodynamic recordings by a single individual (S.X.), who was blinded to animals' group assignments.

[2] = system: ryanodine receptors (RyR); experiment: Western analysis of myocardial calcium-handling proteins by densitometry: RyR (Example 2); assay type: in vivo, rats; details: 2 mg/kg/day oral, 8 weeks, untreated CHF 1.6±0.4, Sham 2.8±0.8
Method: (§1) Chronic heart failure was induced by coronary artery ligation in rats, and was confirmed by echocardiography, three weeks post-surgery. Three groups of rats were studied: (1) Chronic heart failure without clenbuterol (n=7); (2) chronic heart failure+clenbuterol (2 mg/kg/day; n=5); and (3) rats after sham operation (n=11). After 8 weeks of oral clenbuterol therapy, echocardiography and direct hemodynamic monitoring were performed. Rat hearts were then harvested for ex vivo left ventricular pressure-volume relationship (LVPVR) tracings, histologic (trichrome) sections, and molecular assays. Western analysis for myocardial calcium-handling proteins (ryanodine receptors (RyR), SERCA2a, phospholamban, and calcium-sodium exchanger) was assessed by densitometry.

[3] = system: sarcoplasmic reticulum calcium-ATPase (SERCA2a); experiment: Western blot of calcium-handling protein expression: SERCA2a (Example 5); assay type: in vivo, Sprague-Dawley rats; details: FIG. 6; not different from Sham
Method: Five rat hearts from each group (HF, Clen, Meto, Clen+Meto, and Sham) were randomly selected and used for analysis of calcium-handling protein expression levels. Lysates of LV tissue were obtained with the use of a homogenizer (Brinkmann Instruments, Westbury, N.Y.). Approximately 150 mg of heart tissue was placed in a seven-fold volume of lysis buffer (20 mM/L Na-HEPES, 4 mM/L EGTA, 1 mM/L DTT, pH 7.4) in the presence of proteinase inhibitors (0.1 mM/L leupeptin and 0.3 mM/L PMSF). The protein concentration was determined using a protein assay kit (Bio-Rad Laboratories, Hercules, Calif.). Samples (50 μg) were denatured at 95° C. and size-fractionated using SDS-polyacrylamide gel electrophoresis (PAGE) under reducing conditions. SDS-PAGE was performed using 7.5% separating and 5% stacking gels for SERCA2a and 5% separating and 4% stacking gels for RyR. Electrophoresis was performed in a Miniprotean II cell (Bio-Rad Laboratories, Hercules, Calif.) followed by transfer of proteins (using 34 V overnight at 4° C.) onto nitrocellulose in a mini trans-blot transfer cell (Bio-Rad Laboratories, Hercules, Calif.) filled with transfer buffer (25 m/L Tris-HCl, pH 8.3, 192 mM/L glycine and 20% methanol). […]
Optical densities of protein level signals were quantified with the use of a laser scanning densitometer (Molecular Dynamics, Palo Alto, Calif.) in a blinded manner. […]

[4] = system: rats with chronic heart failure induced by coronary artery ligation; experiment: Echocardiography and direct hemodynamic monitoring in rats with chronic heart failure induced by coronary artery ligation (Example 2); assay type: in vivo; details: 2 mg/kg/day oral, 8 weeks
Method: as §1

[5] = ten of 15 LVAD patients; with ACE inhibition, β-1 selective blockade, spironolactone; cited from earlier work
[6] = system: rats with chronic heart failure induced by coronary artery ligation; experiment: Ex vivo left ventricular pressure-volume relationship (LVPVR) tracings (Example 2); assay type: in vivo; details: 2 mg/kg/day oral, 8 weeks, untreated CHF 1.11
Method: as §1

SERCA2a = experiment: Western analysis of myocardial calcium-handling proteins by densitometry: SERCA2a (Example 2); assay type: in vivo, rats; details: 2 mg/kg/day oral, 8 weeks, untreated CHF 1.7±0.5, Sham 2.2±0.4
Method: as §1

Row | SMILES | MAP [1] [mmHg] | LVSP [1] [mmHg] | HR [1] [bpm] | Maximum dP/dt [1] [mmHg/s] | Minimum dP/dt [1] [mmHg/s] | Protein level of RyR [2] | SERCA2a protein expression level relative to tubulin, versus HF group [3] | LVEDP ([4]; untreated CHF 27±5, Sham 12±3) [mmHg] | LV fractional area change ([4]; untreated CHF 35±3, Sham 53±2) [%] | LV pressure ([4]; untreated CHF 94±2.8, Sham 114±3.3) [mmHg] | LVdP/dt ([4]; untreated CHF 2,570±384, Sham 3,728±193) | rate of myocardial recovery (LVAD explantation for recovery) [5] [%] | LVPVR volume for a given LV pressure=15 mmHg [6] [mL] | Protein level of SERCA2a (SERCA2a)
1 | COCCc1ccc(OCC(O)CNC(C)C)cc1 (stereo not shown) [Meto, metoprolol] | 42.7 ± 5.38 | 107 ± 9.27 | 243 ± 19.4 | 5462 ± 541 | −4032 ± 830 | – | – | – | – | – | – | – | – | –
2 | CC(C)(C)NCC(O)c1cc(Cl)c(N)c(Cl)c1 (stereo not shown) [Clen, clenbuterol] | 44.2 ± 6.06 | 109 ± 10.7 | 281 ± 11.2 | 4933 ± 596 | 3901 ± 694 | 2.2±0.7 | significantly improved | 15±6 | 42±1 | 100±6 | 3,250±325 mmHg/s | 67 | 1.02 | 2.0±0.2
